Reference: BindingDB's records for doi:10.1021/jm1009814 (Paris-Sud University, 2010)

Tests used:
[1] = target: T1, Fructose-bisphosphate aldolase A (Oryctolagus cuniculus, UniProt P00883); experiment: Inhibition of rabbit muscle […] class 1 Fba expressed in Escherichia coli
T1 sequence (P00883 whole entry): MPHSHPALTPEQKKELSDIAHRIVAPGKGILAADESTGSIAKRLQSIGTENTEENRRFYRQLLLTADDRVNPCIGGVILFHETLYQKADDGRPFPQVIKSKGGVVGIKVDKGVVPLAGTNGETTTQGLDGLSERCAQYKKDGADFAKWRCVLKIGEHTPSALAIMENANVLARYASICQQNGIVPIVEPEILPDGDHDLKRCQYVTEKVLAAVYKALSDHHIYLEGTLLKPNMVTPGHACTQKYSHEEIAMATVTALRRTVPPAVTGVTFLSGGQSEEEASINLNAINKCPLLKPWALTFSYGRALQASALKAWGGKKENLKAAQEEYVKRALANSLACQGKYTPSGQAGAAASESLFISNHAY

[2] = target: T2, Fructose-bisphosphate aldolase (Helicobacter pylori (strain ATCC 700392 / 26695), UniProt P56109); experiment: Inhibition of Helicobacter pylori recombinant zinc dependent class 2 Fba expressed in Escherichia coli JM109
T2 sequence (P56109 whole entry): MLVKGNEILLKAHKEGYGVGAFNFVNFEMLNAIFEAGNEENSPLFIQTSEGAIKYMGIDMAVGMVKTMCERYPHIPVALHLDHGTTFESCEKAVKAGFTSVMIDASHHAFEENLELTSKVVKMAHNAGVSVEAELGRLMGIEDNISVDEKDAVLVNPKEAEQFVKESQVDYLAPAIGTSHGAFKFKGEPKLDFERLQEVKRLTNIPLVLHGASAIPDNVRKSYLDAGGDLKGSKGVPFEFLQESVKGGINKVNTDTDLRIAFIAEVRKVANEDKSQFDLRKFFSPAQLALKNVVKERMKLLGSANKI

[3] = target: T3, Fructose-bisphosphate aldolase (Candida albicans (strain SC5314 / ATCC MYA-2876), UniProt Q9URB4); experiment: Inhibition of Candida albicans zinc dependent class 2 Fba
T3 sequence (Q9URB4 whole entry): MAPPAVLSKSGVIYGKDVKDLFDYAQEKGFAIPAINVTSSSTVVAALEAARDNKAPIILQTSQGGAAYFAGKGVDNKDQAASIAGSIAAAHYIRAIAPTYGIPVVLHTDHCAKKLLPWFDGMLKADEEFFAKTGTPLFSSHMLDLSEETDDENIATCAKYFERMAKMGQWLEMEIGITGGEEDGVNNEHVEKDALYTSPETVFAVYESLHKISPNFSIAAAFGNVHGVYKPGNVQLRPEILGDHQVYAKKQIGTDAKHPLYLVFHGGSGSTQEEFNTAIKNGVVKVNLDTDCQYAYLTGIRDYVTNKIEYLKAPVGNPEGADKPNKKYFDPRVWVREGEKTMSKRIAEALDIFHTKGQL

Compound	Ki [1]	Ki [2]	Ki [3]
CCCCCC(=O)OCCCCN(O)C(=O)COP(=O)(O)O [4-(N-hydroxy-2-(phosphonooxy)acetamido)butyl hexanoate]	850 µM	–	–
O=C([C@H](O)COP(=O)(O)O)[C@H](O)C(O)COP(=O)(O)O (stereo partly drawn) [1,6-di-O-phosphono-D-fructose]	15 µM	17 µM	85 µM
